Measurements taken from patent publication US4542137A, “Alkylaminodesoxy-1.4;3.6-dianhydrohexitol nitrates substituted by purine bases and pharmaceutical compositions” (priority 1980, dated 1985).

Tested on: mongrel dogs
Assay: circulatory pharmacological effectiveness on narcotised dogs, intravenous
Type: in vivo, dog
[1] = dog i.v. ISDN/9c 1, 1d 0.5 mg/kg, 40 min
[2] = dog i.v. ISDN/9c 1, 1d 0.5 mg/kg, 50 min
[3] = dog i.v. ISDN/9c 1, 1d 0.5 mg/kg, 60 min
[4] = dog i.v. ISDN/9c 1, 1d 0.5 mg/kg, 90 min
[5] = dog i.v. ISDN/9c 1, 1d 0.5 mg/kg, 120 min
[6] = dog i.v. ISDN/9c 1, 1d 0.5 mg/kg, 150 min
[7] = dog i.v. ISDN/9c 1, 1d 0.5 mg/kg, 180 min
[8] = dog i.v., before administration (v)

Compound: CN(CCCn1cnc2c1c(=O)n(C)c(=O)n2C)[C@H]1CO[C@H]2[C@@H]1OC[C@@H]2O[N+](=O)[O-] [Example 9c, 5-[N-Methyl-N-(3-theophyllin-7-ylpropyl)-amino]-5-desoxy-1.4;3.6-dianhydro-L-iditol 2-nitrate]
- BFFem: blood flow in the A. femoralis referred to 20 kg body weight [1]: 44.2 mL/min
- HLL: heart capacity left, referred to 20 kg body weight [1]: 0.60 W
- HLR: heart capacity right, referred to 20 kg body weight [1]: 63.2 mW
- HZV: heart minute volume, referred to 20 kg body weight [1]: 2.71 L/min
- LVEDP: end diastolic pressure in the left ventricle [1]: 5.62 mm.Hg
- SV: beat volume, referred to 20 kg body weight [1]: 24.9 mL
- WAP: pulmonalis resistance, referred to 20 kg body weight [1]: 0.30 U
- WFem: moralis resistance, referred to 20 kg body weight [1]: 0.32 KU
- WTP: total peripheral resistance, referred to 20 kg body weight [1]: 5.05 U
- dp/dt: rate of pressure increase in the left ventricle [1]: 2203.1 mm.Hg/sec
- APdiast: diastolic aorta pressure [2]: 88.2 mm.Hg
- APsyst: systolic aorta pressure [2]: 142.5 mm.Hg
- BFFem: blood flow in the A. femoralis referred to 20 kg body weight [2]: 26.6 mL/min
- HF: heart frequency [2]: 105.5
- HLL: heart capacity left, referred to 20 kg body weight [2]: 0.61 W
- HLR: heart capacity right, referred to 20 kg body weight [2]: 61.7 mW
- HZV: heart minute volume, referred to 20 kg body weight [2]: 2.68 L/min
- LVEDP: end diastolic pressure in the left ventricle [2]: 6.19 mm.Hg
- SV: beat volume, referred to 20 kg body weight [2]: 25.5 mL
- WFem: moralis resistance, referred to 20 kg body weight [2]: 0.31 KU
- WTP: total peripheral resistance, referred to 20 kg body weight [2]: 5.24 U
- dp/dt: rate of pressure increase in the left ventricle [2]: 2165.6 mm.Hg/sec
- APdiast: diastolic aorta pressure [3]: 88.2 mm.Hg
- APsyst: systolic aorta pressure [3]: 144.7 mm.Hg
- BFFem: blood flow in the A. femoralis referred to 20 kg body weight [3]: 45.8 mL/min
- HF: heart frequency [3]: 103.2
- HLL: heart capacity left, referred to 20 kg body weight [3]: 0.59 W
- HLR: heart capacity right, referred to 20 kg body weight [3]: 59.1 mW
- HZV: heart minute volume, referred to 20 kg body weight [3]: 2.59 L/min
- SV: beat volume, referred to 20 kg body weight [3]: 25.1 mL
- WAP: pulmonalis resistance, referred to 20 kg body weight [3]: 0.27 U
- WFem: moralis resistance, referred to 20 kg body weight [3]: 0.32 KU
- WTP: total peripheral resistance, referred to 20 kg body weight [3]: 5.48 U
- dp/dt: rate of pressure increase in the left ventricle [3]: 2109.4 mm.Hg/sec
- APdiast: diastolic aorta pressure [4]: 90.9 mm.Hg
- APsyst: systolic aorta pressure [4]: 148.1 mm.Hg
- BFFem: blood flow in the A. femoralis referred to 20 kg body weight [4]: 41.7 mL/min
- HF: heart frequency [4]: 98.0
- HLL: heart capacity left, referred to 20 kg body weight [4]: 0.56 W
- HLR: heart capacity right, referred to 20 kg body weight [4]: 59.2 mW
- HZV: heart minute volume, referred to 20 kg body weight [4]: 2.42 L/min
- SV: beat volume, referred to 20 kg body weight [4]: 24.8 mL
- WAP: pulmonalis resistance, referred to 20 kg body weight [4]: 0.33 U
- WFem: moralis resistance, referred to 20 kg body weight [4]: 0.36 KU
- WTP: total peripheral resistance, referred to 20 kg body weight [4]: 6.00 U
- dp/dt: rate of pressure increase in the left ventricle [4]: 1987.5 mm.Hg/sec
- APdiast: diastolic aorta pressure [5]: 90.9 mm.Hg
- APsyst: systolic aorta pressure [5]: 150.0 mm.Hg
- BFFem: blood flow in the A. femoralis referred to 20 kg body weight [5]: 39.9 mL/min
- HF: heart frequency [5]: 96.7
- HLL: heart capacity left, referred to 20 kg body weight [5]: 0.55 W
- HLR: heart capacity right, referred to 20 kg body weight [5]: 60.8 mW
- HZV: heart minute volume, referred to 20 kg body weight [5]: 2.39 L/min
- LVEDP: end diastolic pressure in the left ventricle [5]: 7.73 mm.Hg
- SV: beat volume, referred to 20 kg body weight [5]: 24.7 mL
- WAP: pulmonalis resistance, referred to 20 kg body weight [5]: 0.35 U
- WFem: moralis resistance, referred to 20 kg body weight [5]: 0.38 KU
- WTP: total peripheral resistance, referred to 20 kg body weight [5]: 6.07 U
- dp/dt: rate of pressure increase in the left ventricle [5]: 1837.5 mm.Hg/sec
- APdiast: diastolic aorta pressure [6]: 88.7 mm.Hg
- APsyst: systolic aorta pressure [6]: 148.7 mm.Hg
- BFFem: blood flow in the A. femoralis referred to 20 kg body weight [6]: 39.0 mL/min
- HF: heart frequency [6]: 98.2
- HLL: heart capacity left, referred to 20 kg body weight [6]: 0.54 W
- HLR: heart capacity right, referred to 20 kg body weight [6]: 64.4 mW
- HZV: heart minute volume, referred to 20 kg body weight [6]: 2.38 L/min
- LVEDP: end diastolic pressure in the left ventricle [6]: 7.87 mm.Hg
- SV: beat volume, referred to 20 kg body weight [6]: 24.3 mL
- WAP: pulmonalis resistance, referred to 20 kg body weight [6]: 0.40 U
- WFem: moralis resistance, referred to 20 kg body weight [6]: 0.37 KU
- WTP: total peripheral resistance, referred to 20 kg body weight [6]: 5.92 U
- dp/dt: rate of pressure increase in the left ventricle [6]: 1809.4 mm.Hg/sec
- APdiast: diastolic aorta pressure [7]: 87.2 mm.Hg
- APsyst: systolic aorta pressure [7]: 148.1 mm.Hg
- BFFem: blood flow in the A. femoralis referred to 20 kg body weight [7]: 42.8 mL/min
- HF: heart frequency [7]: 100.0
- HLL: heart capacity left, referred to 20 kg body weight [7]: 0.55 W
- HLR: heart capacity right, referred to 20 kg body weight [7]: 67.5 mW
- HZV: heart minute volume, referred to 20 kg body weight [7]: 2.47 L/min
- LVEDP: end diastolic pressure in the left ventricle [7]: 7.87 mm.Hg
- SV: beat volume, referred to 20 kg body weight [7]: 24.8 mL
- WAP: pulmonalis resistance, referred to 20 kg body weight [7]: 0.41 U
- WFem: moralis resistance, referred to 20 kg body weight [7]: 0.33 KU
- WTP: total peripheral resistance, referred to 20 kg body weight [7]: 5.61 U
- dp/dt: rate of pressure increase in the left ventricle [7]: 1743.7 mm.Hg/sec
- APdiast: diastolic aorta pressure [8]: 78.7 mm.Hg
- APsyst: systolic aorta pressure [8]: 147.2 mm.Hg
- BFFem: blood flow in the A. femoralis referred to 20 kg body weight [8]: 48.0 mL/min
- HF: heart frequency [8]: 102.5
- HLL: heart capacity left, referred to 20 kg body weight [8]: 0.56 W
- HLR: heart capacity right, referred to 20 kg body weight [8]: 63.08 mW
- HZV: heart minute volume, referred to 20 kg body weight [8]: 2.62 L/min
- PAP: average pressure in the A. pulmonalis [8]: 13.6 mm.Hg
- WFem: moralis resistance, referred to 20 kg body weight [8]: 0.29 KU
- WTP: total peripheral resistance, referred to 20 kg body weight [8]: 5.15 U
- dp/dt: rate of pressure increase in the left ventricle [8]: 1837.5 mm.Hg/sec
- BFFem: blood flow in the A. femoralis referred to 20 kg body weight (dog, in vivo): 41.9 mL/min
- PRV: pressure in the right atrium (dog, in vivo, iv): 3.0
- LVEDP: end diastolic pressure in the left ventricle (iv): 7.60 mm.Hg
- SV: beat volume, referred to 20 kg body weight (iv): 25.9 mL
- WAP: pulmonalis resistance, referred to 20 kg body weight (iv): 0.29 U
